US6916918B2, “Human glandular kallikrein enhancer, vectors comprising the enhancer and methods of use thereof” (priority 1997, dated 2005)

Each molecule was assayed on LNCaP cells transfected with CN390 (assay: steroid hormone specificity of the 1.17-kb hKLK2 enhancer, luciferase reporter). Conditions: FIG. 14.
Assay type: cell-based, human
Procedure: To assess the androgen specificity of the hKLK2 enhancer, LNCaP cells transfected with CN390 (1.17-kb “full enhancer activity” hKLK2 enhancer/minimal hKLK2 promoter) were treated with various steroid hormones.
With `CC/C(=C(/CC)c1ccc(O)cc1)c1ccc(O)cc1` [DES] the “induction of luciferase activity by steroid hormone vs cells not treated with hormones” value (from here on “induction … vs cells not treated with hormones”) was “little or no inducibility”. In the case of `C[C@@H]1C[C@H]2[C@@H]3CCC4=CC(=O)C=C[C@]4(C)[C@@]3(F)[C@@H](O)C[C@]2(C)[C@@]1(O)C(=O)CO` [DEX], the “induction … vs cells not treated with hormones” value is reported as “little or no inducibility”. `C[C@]12CCC(=O)C[C@@H]1CC[C@@H]1[C@@H]2CC[C@]2(C)[C@@H](O)CC[C@@H]12` [DHT, dihydrotestosterone] was tested, and the “induction … vs cells not treated with hormones” value was “marked increases in luciferase activity”. `C[C@]1(O)CC[C@H]2[C@@H]3CCC4=CC(=O)CCC4=C3C=C[C@@]21C` [R1881, methyl trienolone] was tested, and the “induction … vs cells not treated with hormones” value was “marked increases in luciferase activity”.
